Assay results reported in PMC12694606, “DNA-programmed bispecific peptide assemblies for delivering cytotoxic payload to cells expressing EGFR and MET receptors” (RSC Chemical Biology, 2025).
Non-standard residues stand in square brackets, D forms with d. Residues, ends and D or L forms follow the SMILES beside them. *: point of attachment. Dolaproine = CO[C@@H]([C@@H]1CCCN1)[C@@H](C)C(=O)O; Dil = CC[C@H](C)[C@H](NC)[C@@H](CC(=O)O)OC; X1 = C[C@@H](N*)[C@@H](O)c1ccccc1; NMeV = CN[C@H](C(=O)O)C(C)C

Tested on: A549 cells (EGFR+, MET+)
Assay: AlamarBlue cell viability assay, A549 cells
Description: Fig. 5 (a) Arming DNA-template strands in OS21 and OS21+3 with the toxin vcMMAE. […] Viability was normalized to PBS treatment (100% value) and ethanol treatment (0% value). Conditions: 10^4 cells per well in 100 µL medium and propagated 24 h to a confluency of ca. 85% cells, probes were incubated for 10 min in PBS, 37 °C, 5% CO2; AlamarBlue assay in full medium, 6 h.
A549 cells were incubated with the oligonucleotide assemblies for ten minutes. Cell viability was assessed six hours later using an AlamarBlue assay. […] For comparison, we assessed the viability response to treatment with MMAE at a 100 nM concentration in unconjugated form. […] Next, the cells were treated in the presence of HGF.
A549 cells were seeded into wells of a 96 well-microtiter plate (100 μL in respective medium)
at a density of 10 4 cells/well. Cells were allowed to grow for 24 h to a confluency of ca. 85%.
The medium was removed and wells carefully washed once with PBS (preheated at 37°C). The
probes were added at specific concentrations in PBS with or without HGF (100 ng/mL). The
cells were incubated at 37°C, 5% CO 2 for 10 minutes. After one careful wash with PBS, 10%
alamar blue was added, and the fluorescence signal (590 nm) was recorded after 6 hours using
Cytotoxicity of cathepsin B-cleavable vcMMAE-DNA-peptide complex with different […]

| Compound | cell viability (100 nM, unconjugated form, 10 min in PBS, AlamarBlue 6 h (Fig. S17)) [%] | cell viability, control experiments (in words) (Fig. S17, 10 min in PBS, AlamarBlue 6 h) |
| --- | --- | --- |
| CC[C@H](C)[C@@H]([C@@H](CC(=O)N1CCC[C@H]1[C@H](OC)[C@@H](C)C(=O)N[C@H](C)[C@@H](O)c1ccccc1)OC)N(C)C(=O)[C@@H](NC(=O)[C@@H](NC)C(C)C)C(C)C [MMAE, monomethyl auristatin E] (H-[NMeV]V[Dil][Dolaproine]-X1) | 79 |  |
| HGF: hepatocyte growth factor, used at 100 ng/mL to induce MET internalization |  | unaffected |
